The record followed here is ChEMBL document CHEMBL1132011, “The synthesis of ketomethylene pseudopeptide analogues of dipeptide aldehyde inhibitors of calpain” (Bioorg Med Chem Lett, 1999).

The target of the assay is T1, Calpain-1 catalytic subunit (Gallus gallus, UniProt P00789).
T1 sequence (P00789 whole entry): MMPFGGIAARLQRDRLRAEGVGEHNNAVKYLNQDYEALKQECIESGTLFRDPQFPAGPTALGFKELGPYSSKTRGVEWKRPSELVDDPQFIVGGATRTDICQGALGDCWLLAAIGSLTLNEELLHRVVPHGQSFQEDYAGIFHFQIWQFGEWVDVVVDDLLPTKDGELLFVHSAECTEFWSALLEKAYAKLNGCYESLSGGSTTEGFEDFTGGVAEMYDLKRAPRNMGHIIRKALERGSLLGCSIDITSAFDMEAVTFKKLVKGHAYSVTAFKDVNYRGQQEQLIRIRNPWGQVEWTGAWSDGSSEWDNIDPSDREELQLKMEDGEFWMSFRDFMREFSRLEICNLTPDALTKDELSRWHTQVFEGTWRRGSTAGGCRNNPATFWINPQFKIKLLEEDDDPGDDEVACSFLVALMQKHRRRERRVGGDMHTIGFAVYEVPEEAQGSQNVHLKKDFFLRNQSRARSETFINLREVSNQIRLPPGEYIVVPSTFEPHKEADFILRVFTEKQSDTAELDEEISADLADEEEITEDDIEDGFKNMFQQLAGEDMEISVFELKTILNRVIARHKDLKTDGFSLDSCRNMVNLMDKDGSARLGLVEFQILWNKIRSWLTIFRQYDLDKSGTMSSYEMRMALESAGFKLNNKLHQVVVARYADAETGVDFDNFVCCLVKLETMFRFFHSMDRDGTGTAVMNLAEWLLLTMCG
The experiment in a line: Inhibitory activity against chicken gizzard smooth muscle calpain.

Molecules are shown by their SMILES. Non-standard residues stand in square brackets, D forms with d. Residues, ends and D or L forms follow the SMILES beside them. ξ: configuration not given here. *: point of attachment. ξF = NC(Cc1ccccc1)C(=O)O; Cbz = O=C(OCc1ccccc1)*

In turn, `CC(C)[C@H](NC(=O)OCc1ccccc1)C(=O)NC(C=O)Cc1ccccc1` (stereo partly drawn) (Cbz-Val-[ξF]-aldehyde) gave a Ki of 10 nM.

For `CC(C=O)CC(=O)[C@@H](NC(=O)OCc1ccccc1)C(C)C` (stereo partly drawn), affinity was put at a Ki of 45000 nM.

Turning to `CC(C)[C@H](NC(=O)OCc1ccccc1)C(=O)C[C@H](C=O)Cc1ccccc1`, the affinity, expressed as Ki, was 2500 nM.

One may read the Ki as the equilibrium dissociation constant of an inhibitor or competing ligand from its target.
